Patent US20050107440A1, “Rosiglitazone edisylates and their use as antidiabetics” (priority 2001, published 2005)

Key:
Format in all cases: physicochemical
[1] = Solubility of the Ethanedisulfonate Form I in water (visual, aliquot addition); settings: water added in aliquots 0.25 to 1 ml to approx. 30 mg; product of Example 2
[2] = Solubility of the Ethanedisulfonate Form II in water (visual, confirmed by HPLC assay of a saturated solution); settings: water added in aliquots 1 to 1000 ml to approx. 100 mg, product of Example 7
Text: The visual solubility was confirmed by an HPLC assay of a saturated solution.

[3] = Solid state stability of the drug substance (storage 1 month, HPLC assay); settings: product of Example 7
Method: The solid state stability of the drug substance was determined by storing approximately 1.0 g of the material in a glass bottle at a) 40° C./75% Relative Humidity (RH), open exposure, for 1 month and b) at 50° C., closed, for 1 month. […] Solubility of the Ethanedisulfonate Form II

| Compound | Solubility [1] [µg/mL] | Solubility [2] [µg/mL] | Solid state stability: HPLC assay (final content) ([3]; 40° C./75% RH, open exposure) [% initial] | Solid state stability: degradation ([3]; 40° C./75% RH, open exposure) | Solid state stability: HPLC assay (final content) ([3]; 50° C., closed) [% initial] | Solid state stability: degradation ([3]; 50° C., closed) |
| --- | --- | --- | --- | --- | --- | --- |
| CN(CCOc1ccc(CC2SC(=O)NC2=O)cc1)c1ccccn1.O=S(=O)(O)CCS(=O)(=O)O (stereo not drawn) [Ethanedisulfonate Form I, 5-[4-[2-(N-methyl-N-(2-pyridyl)amino)ethoxy]benzyl]thiazolidine-2,4-dione 1,2-ethanedisulfonate Form I] | 4700 | – | – | – | – | – |
| CN(CCOc1ccc(CC2SC(=O)NC2=O)cc1)c1ccccn1.O=S(=O)(O)CCS(=O)(=O)O (stereo not drawn) [Ethanedisulfonate Form II, 5-[4-[2-(N-methyl-N-(2-pyridyl)amino)ethoxy]benzyl]thiazolidine-2,4-dione 1,2-ethanedisulfonate Form II] | – | 4700 | 98 | No significant degradation observed | 99 | No significant degradation observed |
